Laboratory results reported in patent EP4806891A1 (Kangbaida (Sichuan) Biotechnology Co., Ltd., priority 2023, dated 2025).
pIC50: −log10 of the molar value.

These compounds were tested against T1, HEK-Blue-hTLR7 cells (Homo sapiens, UniProt Q9NYK1) (assay: HEK-Blue-hTLR7 cell inhibition assay). Settings: R848 0.8 µM, 16 h, OD 620 nm, read-out: TLR7 IC50.
T1 construct: expressed in transfected cells; host or cells: HEK-Blue-hTLR7 cells (HEK293-derived reporter line)
T1 sequence (Q9NYK1 27-1049): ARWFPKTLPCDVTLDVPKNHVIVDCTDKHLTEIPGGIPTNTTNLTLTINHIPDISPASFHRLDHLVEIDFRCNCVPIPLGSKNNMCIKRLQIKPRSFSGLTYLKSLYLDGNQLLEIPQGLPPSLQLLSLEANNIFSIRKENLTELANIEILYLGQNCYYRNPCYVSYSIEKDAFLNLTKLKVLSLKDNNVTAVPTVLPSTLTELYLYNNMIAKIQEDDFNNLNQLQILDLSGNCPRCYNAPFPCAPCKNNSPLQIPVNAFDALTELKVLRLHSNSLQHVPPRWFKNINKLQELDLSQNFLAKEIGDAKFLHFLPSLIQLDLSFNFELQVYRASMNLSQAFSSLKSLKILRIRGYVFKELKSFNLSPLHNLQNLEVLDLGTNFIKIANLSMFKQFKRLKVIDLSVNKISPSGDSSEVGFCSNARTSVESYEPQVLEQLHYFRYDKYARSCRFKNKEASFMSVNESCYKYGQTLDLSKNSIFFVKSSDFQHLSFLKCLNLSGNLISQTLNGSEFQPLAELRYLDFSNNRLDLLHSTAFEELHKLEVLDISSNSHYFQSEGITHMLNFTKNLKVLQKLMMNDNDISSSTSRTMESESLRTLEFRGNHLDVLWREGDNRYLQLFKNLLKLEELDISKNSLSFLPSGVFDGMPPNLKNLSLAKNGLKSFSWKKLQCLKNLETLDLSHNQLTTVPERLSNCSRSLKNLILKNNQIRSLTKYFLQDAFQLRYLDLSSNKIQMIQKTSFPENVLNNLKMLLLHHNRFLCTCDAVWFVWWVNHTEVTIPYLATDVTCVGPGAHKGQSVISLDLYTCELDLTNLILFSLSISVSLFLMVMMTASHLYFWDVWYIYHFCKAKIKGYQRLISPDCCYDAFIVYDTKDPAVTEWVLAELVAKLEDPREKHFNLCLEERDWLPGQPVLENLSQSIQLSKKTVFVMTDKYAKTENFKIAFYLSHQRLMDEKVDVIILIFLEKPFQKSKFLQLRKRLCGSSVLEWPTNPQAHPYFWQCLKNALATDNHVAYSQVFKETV
Type: cell-based
Method in brief: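 Cells were pre-incubated 4 h, then co-treated 16 h at 37 °C with compound (10 doses, 0.5–10000 nM final) plus R848 (0.8 µM for TLR7, 3 µM for TLR8) or ODN2006 (1 µM, TLR9). Reporter OD620 gave inhibition relative to DMSO blank and agonist-only controls; IC50 came from curve fitting.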

Structure (SMILES)	pIC50
CN(C)[C@H]1CC[C@H](c2nnc([C@]34CN(c5ccc(C#N)c6ncccc56)C[C@@]3(C(F)(F)F)C4)o2)CC1 [Compound 21, 5-((1S,5R)-1-(5-((1R,4S)-4-(dimethylamino)cyclohexyl)-1,3,4-oxadiazol-2-yl)-5-(trifluoromethyl)-3-azabicyclo[3.1.0]hexan-3-yl)quinoline-8-carbonitrile]	> 7.00
N#Cc1ccc(N2C[C@]3(c4nnc(C5=CCNC5)o4)C[C@]3(C(F)(F)F)C2)c2cccnc12 [Compound 22, 5-((1S,5R)-1-(5-(2,5-dihydro-1H-pyrrol-3-yl)-1,3,4-oxadiazol-2-yl)-5-(trifluoromethyl)-3-azabicyclo[3.1.0]hexan-3-yl)quinoline-8-carbonitrile]	> 7.00
CN1CCC(n2cnc([C@]34CN(c5ccc(C#N)c6ncccc56)C[C@@]3(C(F)(F)F)C4)n2)CC1 [Compound 23, 5-((1S,5R)-1-(1-(1-methylpiperidin-4-yl)-1H-1,2,4-triazol-3-yl)-5-(trifluoromethyl)-3-azabicyclo[3.1.0]hexan-3-yl)quinoline-8-carbonitrile]	> 7.00
N#Cc1ccc(N2C[C@]3(c4nnc(C#CCN5CCOCC5)o4)C[C@]3(C(F)(F)F)C2)c2cccnc12 [Compound 24, 5-((1S,5R)-1-(5-(3-morpholinoprop-1-yn-1-yl)-1,3,4-oxadiazol-2-yl)-5-(trifluoromethyl)-3-azabicyclo[3.1.0]hexan-3-yl)quinoline-8-carbonitrile]	> 6.00
CN(C)CC#Cc1nnc([C@]23CN(c4ccc(C#N)c5ncccc45)C[C@@]2(C(F)(F)F)C3)o1 [Compound 25, 5-((1S,5R)-1-(5-(3-(dimethylamino)prop-1-yn-1-yl)-1,3,4-oxadiazol-2-yl)-5-(trifluoromethyl)-3-azabicyclo[3.1.0]hexan-3-yl)quinoline-8-carbonitrile]	> 7.00
CC1(C)CC(Cc2nnc([C@]34CN(c5ccc(C#N)c6ncccc56)C[C@@]3(C(F)(F)F)C4)o2)CC(C)(C)N1 [Compound 26, 5-((1S,5R)-1-(5-((2,2,6,6-tetramethylpiperidin-4-yl)methyl)-1,3,4-oxadiazol-2-yl)-5-(trifluoromethyl)-3-azabicyclo[3.1.0]hexan-3-yl)quinoline-8-carbonitrile]	> 7.00
N#Cc1ccc(N2C[C@]3(c4nnc(N5CCOCC5)o4)C[C@]3(C(F)(F)F)C2)c2cccnc12 [Compound 27, 5-((1S,5R)-1-(5-morpholino-1,3,4-oxadiazol-2-yl)-5-(trifluoromethyl)-3-azabicyclo[3.1.0]hexan-3-yl)quinoline-8-carbonitrile]	> 7.00
CN1CCC(Oc2nnc([C@]34CN(c5ccc(C#N)n6ncc(F)c56)C[C@@]3(C(F)(F)F)C4)o2)CC1 [Compound 31, 3-fluoro-4-((1S,5R)-1-(5-((1-methylpiperidin-4-yl)oxy)-1,3,4-oxadiazol-2-yl)-5-(trifluoromethyl)-3-azabicyclo[3.1.0]hexan-3-yl)pyrazolo[1,5-a]pyridine-7-carbonitrile]	> 7.00
N#Cc1ccc(N2C[C@]3(c4nnc(C5(F)CNC5)o4)C[C@]3(C(F)(F)F)C2)c2cccnc12 [Compound 32, 5-((1S,5R)-1-(5-(3-Fluoroazetidin-3-yl)-1,3,4-oxadiazol-2-yl)-5-(trifluoromethyl)-3-azabicyclo[3.1.0]hexan-3-yl)quinoline-8-carbonitrile]	> 7.00
N#Cc1ccc(N2C[C@]3(c4nnc(C5CCNCC5F)o4)C[C@]3(C(F)(F)F)C2)c2cccnc12 (stereo partly drawn) [Compound 33]	> 7.00
CN1CCC(c2nnc([C@]34CN(c5ccc(C#N)c6ncccc56)C[C@@]3(C(F)(F)F)C4)o2)CC1=O (stereo partly drawn) [Compound 34]	> 7.00
N#Cc1ccc(N2C[C@]3(c4nnc(CC5CNC5)o4)C[C@]3(C(F)(F)F)C2)c2cccnc12 [Compound 35, 5-((1S,5R)-1-(5-(azetidin-3-ylmethyl)-1,3,4-oxadiazol-2-yl)-5-(trifluoromethyl)-3-azabicyclo[3.1.0]hexan-3-yl)quinoline-8-carbonitrile]	> 6.00
